Data taken from US20220049219A1, “AUTOMATED GENERATION AND ANALYSIS OF ORGANOIDS” (Max-Planck-Gesellschaft zur Förderung der Wissenschaften …, priority 2018, published 2022).

Tested on: automated midbrain organoids (AMOs)
Test: 3D toxicology assay: cCasp3/Sox2 whole mount immunostaining and high content imaging of G418-treated organoids
Type: cell-based, human
Conditions: AMOs treated for 4 days starting at day 50 of culture; 0-1000 μg/mL; cCasp3+ cells normalized by aggregate area
Experimental: In order to analyze protein expression in 3D in a HTS-compatible manner, we adapted a whole mount staining protocol based on Lee et al. ACT-PRESTO: Rapid and consistent tissue 579 clearing and labeling method for 3-dimensional (3D) imaging. Sci Rep 6, 18631 (2016) for organoids and optimized it for use in an automated liquid handling system. After fixation with 4% PFA (VWR) for 10-15 minutes, we stained the organoids with primary and secondary antibodies (Alexa Fluor secondary antibodies, Thermo Fisher) for 6 days each. We diluted the antibodies in a blocking and permeabilization solution (6% BSA, 0.5% Triton-X 100 (Roth), 0.1% (w/v) sodium azide (Sigma-Aldrich) in PBS (Sigma-Aldrich)) and renewed it every 2 days. Between primary and secondary antibody incubation as well as after the staining procedure we washed the organoids 5 times for 1 h with 0.1% Triton X-100 in PBS. […]
After staining and clearing, we achieved uniform aggregate positioning within the wells by tilting the plates off the horizontal plane at 60 degrees for 1 minute. Image acquisition was carried out in an Operetta high content imager (Perkin Elmer) and images were analyzed in Harmony 4.1 software. […] We excluded image artifacts, small dust particles, and overlapping nuclei by omitting nuclei brighter than 6000 abu and larger than 70 μm2 from further quantification. […]

CN[C@@H]1[C@@H](O)[C@@H](O[C@@H]2[C@@H](O)[C@H](O[C@H]3O[C@H]([C@@H](C)O)[C@@H](O)[C@H](O)[C@H]3N)[C@@H](N)C[C@H]2N)OC[C@]1(C)O [G418]
IC50 from dose-response curve of number of apoptotic cCasp3+ cells against logarithmic drug concentration: 339 μg/mL
